pIC50: −log10 of the molar value.
Biological target: T1, human FPTase (Homo sapiens, UniProt P49354+P49356)
T1 construct: made in house
Test: In vitro inhibition of human farnesyl-protein transferase ([3H]-FPP incorporation into Ras-CVIM)
Type: biochemical
Conditions: 100 nM Ras-CVIM, 30 min, read-out: IC50, inhibitory activity against human FPTase

pIC50 | Compound
> 4.70 | COC1OC(OC)c2c1cc(O)c1c2O[C@@]2(C)CC[C@H]3C(C)(C)[C@@H](OC(C)=O)CC[C@]3(C)[C@H]2C1 (some centres unmarked) [Compound I]
> 4.70 | CC(=O)O[C@H]1CC[C@]2(C)[C@H]3Cc4c(O)cc5c(c4O[C@@]3(C)CC[C@H]2C1(C)C)COC5=O [Compound II]

— US5789438A, “Inhibitors of farnesyl-protein transferase” (Merck & Co., Inc., priority 1997, dated 1998)
